Data set [1] addresses T1, Phosphatidylinositol 4,5-bisphosphate 3-kinase catalytic subunit alpha isoform (Homo sapiens, UniProt P42336). As to the kind of experiment: Inhibition of N-terminus poly-His tagged human PI3Kalpha expressed in baculovirus infected insect sf9 cells coexpressing p85alpha using PI(4,5)P2 as substrate preincubated with compound for 15 mins measured after 10 mins by HTRF assay.

Data set [2] addresses T2, Phosphatidylinositol 4,5-bisphosphate 3-kinase catalytic subunit delta isoform (Homo sapiens, UniProt O00329).
T2 sequence (O00329 whole entry): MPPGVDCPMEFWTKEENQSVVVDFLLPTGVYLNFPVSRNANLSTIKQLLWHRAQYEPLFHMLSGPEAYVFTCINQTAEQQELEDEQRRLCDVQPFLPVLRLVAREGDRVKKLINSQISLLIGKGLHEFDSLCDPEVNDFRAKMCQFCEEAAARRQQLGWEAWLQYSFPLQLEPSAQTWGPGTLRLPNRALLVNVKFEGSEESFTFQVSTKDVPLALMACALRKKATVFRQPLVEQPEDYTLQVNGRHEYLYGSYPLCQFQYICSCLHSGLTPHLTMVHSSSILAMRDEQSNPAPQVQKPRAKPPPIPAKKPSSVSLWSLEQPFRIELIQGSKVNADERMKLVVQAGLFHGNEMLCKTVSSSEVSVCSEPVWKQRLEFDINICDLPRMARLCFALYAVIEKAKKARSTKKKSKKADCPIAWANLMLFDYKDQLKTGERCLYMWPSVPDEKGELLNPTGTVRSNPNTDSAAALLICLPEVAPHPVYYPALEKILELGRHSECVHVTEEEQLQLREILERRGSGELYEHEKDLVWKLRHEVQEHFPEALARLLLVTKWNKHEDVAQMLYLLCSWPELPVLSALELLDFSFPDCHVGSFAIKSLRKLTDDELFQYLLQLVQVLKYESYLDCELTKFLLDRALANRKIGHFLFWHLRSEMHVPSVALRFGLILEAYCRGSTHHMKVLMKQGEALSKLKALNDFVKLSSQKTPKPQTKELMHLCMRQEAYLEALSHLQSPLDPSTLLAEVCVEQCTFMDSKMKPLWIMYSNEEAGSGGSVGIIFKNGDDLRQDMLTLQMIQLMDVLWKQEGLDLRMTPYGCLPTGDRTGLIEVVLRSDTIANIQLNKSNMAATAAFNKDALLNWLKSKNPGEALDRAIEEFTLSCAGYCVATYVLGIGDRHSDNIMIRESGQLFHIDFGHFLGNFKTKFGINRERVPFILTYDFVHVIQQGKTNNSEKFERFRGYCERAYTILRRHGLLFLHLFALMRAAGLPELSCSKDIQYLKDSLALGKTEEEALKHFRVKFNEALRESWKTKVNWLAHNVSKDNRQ
The data set can be described thus: Inhibition of poly-His tagged human PI3Kdelta expressed in baculovirus infected insect sf9 cells coexpressing p85alpha using PI(4,5)P2 as substrate preincubated with compound for 15 mins measured after 10 mins by HTRF assay.

Data set [3] deals with T3, Phosphatidylinositol 4,5-bisphosphate 3-kinase catalytic subunit gamma isoform (Homo sapiens, UniProt P48736). The data set can be described thus: Inhibition of N-terminus poly-His tagged human PI3Kgamma expressed in baculovirus infected insect sf9 cells using PI(4,5)P2 as substrate preincubated with compound for 15 mins measured after 10 mins by HTRF assay. (Time-resolved FRET reads energy transfer from a long-lived donor to a nearby acceptor.)
T3 sequence (P48736 whole entry, canonical isoform): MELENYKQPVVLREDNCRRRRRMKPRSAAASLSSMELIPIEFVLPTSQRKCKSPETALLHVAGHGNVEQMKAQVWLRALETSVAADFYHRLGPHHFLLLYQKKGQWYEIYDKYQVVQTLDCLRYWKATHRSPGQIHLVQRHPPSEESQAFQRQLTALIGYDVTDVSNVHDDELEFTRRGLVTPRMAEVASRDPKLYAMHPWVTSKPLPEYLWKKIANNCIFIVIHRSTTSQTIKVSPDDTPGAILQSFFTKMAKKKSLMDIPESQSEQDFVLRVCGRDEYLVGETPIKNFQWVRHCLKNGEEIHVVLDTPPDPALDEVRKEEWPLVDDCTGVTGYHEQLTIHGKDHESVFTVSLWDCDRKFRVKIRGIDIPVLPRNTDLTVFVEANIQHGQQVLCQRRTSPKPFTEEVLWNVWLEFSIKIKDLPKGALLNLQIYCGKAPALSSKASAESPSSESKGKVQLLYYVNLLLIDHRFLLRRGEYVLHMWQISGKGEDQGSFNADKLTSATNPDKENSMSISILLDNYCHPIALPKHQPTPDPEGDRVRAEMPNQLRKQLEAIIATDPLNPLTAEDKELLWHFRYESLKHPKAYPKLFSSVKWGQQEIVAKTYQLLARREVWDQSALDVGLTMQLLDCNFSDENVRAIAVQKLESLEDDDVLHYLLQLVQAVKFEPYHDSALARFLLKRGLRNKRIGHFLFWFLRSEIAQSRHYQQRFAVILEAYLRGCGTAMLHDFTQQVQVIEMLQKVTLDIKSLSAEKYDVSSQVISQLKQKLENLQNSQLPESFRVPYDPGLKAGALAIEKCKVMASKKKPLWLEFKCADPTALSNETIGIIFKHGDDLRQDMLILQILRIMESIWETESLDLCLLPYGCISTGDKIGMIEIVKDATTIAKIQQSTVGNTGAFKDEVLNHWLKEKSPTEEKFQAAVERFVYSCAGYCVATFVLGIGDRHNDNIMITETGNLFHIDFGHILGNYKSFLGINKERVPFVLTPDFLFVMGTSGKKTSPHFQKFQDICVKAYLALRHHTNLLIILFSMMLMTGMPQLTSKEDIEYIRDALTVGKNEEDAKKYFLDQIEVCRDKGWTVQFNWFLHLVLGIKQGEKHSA

Data set [4] in a line: Inhibition of mTORC2-mediated Akt phosphorylation at Ser473 residue in PTEN-deficient human PC3 cells after 2 hrs by Western blot analysis. Type of data set: cell-based. The settings on record: PC-3, 2 h. Background: A western blot detects proteins with antibodies after separation by electrophoresis.
The target of data set [5] is T1, Phosphatidylinositol 4,5-bisphosphate 3-kinase catalytic subunit alpha isoform. As to the kind of experiment: Inhibition of human PI3Kalpha-mediated Akt phosphorylation at Ser473 residue expressed in human H460 cells after 0.5 to 2 hrs by Western blot analysis. Type of data set: cell-based.
For data set [6], the target named is T2, Phosphatidylinositol 4,5-bisphosphate 3-kinase catalytic subunit delta isoform. As to the kind of experiment: Inhibition of human PI3Kdelta-mediated Akt phosphorylation at Ser473 residue expressed in mouse MEF-3T3 cells after 0.5 to 2 hrs by Western blot analysis. Type of data set: cell-based.
Data set [7] concerns the target T3, Phosphatidylinositol 4,5-bisphosphate 3-kinase catalytic subunit gamma isoform. The data set can be described thus: Inhibition of human PI3Kgamma-mediated Akt phosphorylation at Ser473 residue expressed in mouse RAW264.7 cells after 0.5 to 2 hrs by Western blot analysis. It is filed as cell-based.
Data set [8] deals with T4, Phosphatidylinositol 4,5-bisphosphate 3-kinase catalytic subunit beta isoform (Homo sapiens, UniProt P42338). As to the kind of experiment: Inhibition of human PI3Kbeta-mediated Akt phosphorylation at Ser473 residue expressed in PTEN-deficient human PC3 cells by chemiluminescence assay. Type of data set: cell-based, PC-3.
T4 sequence (P42338 whole entry, canonical isoform): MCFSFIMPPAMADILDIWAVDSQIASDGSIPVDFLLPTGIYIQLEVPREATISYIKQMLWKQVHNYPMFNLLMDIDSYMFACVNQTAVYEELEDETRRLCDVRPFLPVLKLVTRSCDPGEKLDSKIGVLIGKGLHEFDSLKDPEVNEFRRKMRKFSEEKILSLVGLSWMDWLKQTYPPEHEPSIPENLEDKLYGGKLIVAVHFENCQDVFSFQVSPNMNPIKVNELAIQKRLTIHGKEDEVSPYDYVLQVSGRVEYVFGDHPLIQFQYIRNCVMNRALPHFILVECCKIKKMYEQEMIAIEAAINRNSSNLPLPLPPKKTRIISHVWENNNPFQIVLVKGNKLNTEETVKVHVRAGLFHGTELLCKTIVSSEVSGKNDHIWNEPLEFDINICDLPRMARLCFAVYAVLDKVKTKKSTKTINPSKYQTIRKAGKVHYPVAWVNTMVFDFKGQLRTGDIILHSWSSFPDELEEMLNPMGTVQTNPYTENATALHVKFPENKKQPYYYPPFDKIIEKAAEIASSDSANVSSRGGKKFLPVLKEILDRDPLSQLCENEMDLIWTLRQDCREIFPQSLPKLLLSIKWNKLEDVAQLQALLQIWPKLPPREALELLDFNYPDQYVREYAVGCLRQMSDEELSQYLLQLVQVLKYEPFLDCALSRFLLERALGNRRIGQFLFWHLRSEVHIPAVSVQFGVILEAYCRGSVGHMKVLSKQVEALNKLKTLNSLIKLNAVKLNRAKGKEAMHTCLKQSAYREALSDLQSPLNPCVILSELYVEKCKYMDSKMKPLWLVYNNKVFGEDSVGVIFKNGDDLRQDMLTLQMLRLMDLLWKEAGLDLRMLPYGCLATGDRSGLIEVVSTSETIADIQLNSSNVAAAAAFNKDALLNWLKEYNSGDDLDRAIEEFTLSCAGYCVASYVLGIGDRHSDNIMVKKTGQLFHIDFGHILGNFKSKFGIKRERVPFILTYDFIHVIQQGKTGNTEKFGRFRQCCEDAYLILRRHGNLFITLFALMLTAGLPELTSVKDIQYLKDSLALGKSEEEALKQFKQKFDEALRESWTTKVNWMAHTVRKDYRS
The target of data set [9] is T4, Phosphatidylinositol 4,5-bisphosphate 3-kinase catalytic subunit beta isoform. As to the kind of experiment: Inhibition of N-terminus poly-His tagged human PI3Kbeta expressed in baculovirus infected insect […] cells coexpressing p85alpha using PI(4,5)P2 as substrate preincubated with compound for 15 mins measured after 10 mins by HTRF assay.
The target is the same in data set [10]. As to the kind of experiment: Inhibition of human PI3Kbeta-mediated Akt phosphorylation at T308 residue expressed in PTEN-deficient human PC3 cells after 2 hrs by Western blot analysis. It is filed as cell-based, PC-3.
Data set [11] deals with Serine/threonine-protein kinase mTOR (Homo sapiens, UniProt P42345). As to the kind of experiment: Inhibition of mTOR.
Data set [12] in a line: Thermodynamic solubility of the compound in phosphate buffer at pH 7.4 after 16 hrs by HPLC analysis. Type of data set: physicochemical. The settings on record: read-out: Therm_solubility.
Data set [13] can be described thus: Apparent permeability of the compound across human Caco2 cells. Type of data set: ADME, cell-based. The note with it: Caco-2. On the technique in general: Caco-2 monolayers are a common model of the intestinal barrier.
A further data set has as its target Cytochrome P450 3A4 (Homo sapiens, UniProt P08684). The data set can be described thus: Inhibition of human recombinant CPY3A4.
Data set [14] in a line: Drug metabolism in human liver microsomes. The settings on record: read-out: Drug metabolism. Type of data set: ADME, Microsome.
Data set [15] is described as follows: Drug metabolism in mouse liver microsomes. Type of data set: ADME, Microsome. The note with it: read-out: Drug metabolism.

Converted amounts (≈) assume the structure as drawn.

Chain of Cytochrome P450 3A4 (P08684 whole entry): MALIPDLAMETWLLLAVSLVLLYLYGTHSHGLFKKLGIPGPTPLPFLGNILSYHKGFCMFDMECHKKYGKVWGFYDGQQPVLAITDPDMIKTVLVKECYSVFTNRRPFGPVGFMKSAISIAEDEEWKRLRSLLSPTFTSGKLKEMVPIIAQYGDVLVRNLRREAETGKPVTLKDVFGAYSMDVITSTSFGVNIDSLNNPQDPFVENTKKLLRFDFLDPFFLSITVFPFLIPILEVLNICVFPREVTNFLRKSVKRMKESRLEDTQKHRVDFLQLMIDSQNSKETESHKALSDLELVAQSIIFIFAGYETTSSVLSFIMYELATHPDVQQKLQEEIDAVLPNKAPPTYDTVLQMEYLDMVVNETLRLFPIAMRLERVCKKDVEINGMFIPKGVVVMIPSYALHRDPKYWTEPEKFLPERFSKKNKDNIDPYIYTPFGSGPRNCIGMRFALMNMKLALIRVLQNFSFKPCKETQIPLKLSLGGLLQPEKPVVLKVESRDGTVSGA
T1 sequence (P42336 whole entry, canonical isoform): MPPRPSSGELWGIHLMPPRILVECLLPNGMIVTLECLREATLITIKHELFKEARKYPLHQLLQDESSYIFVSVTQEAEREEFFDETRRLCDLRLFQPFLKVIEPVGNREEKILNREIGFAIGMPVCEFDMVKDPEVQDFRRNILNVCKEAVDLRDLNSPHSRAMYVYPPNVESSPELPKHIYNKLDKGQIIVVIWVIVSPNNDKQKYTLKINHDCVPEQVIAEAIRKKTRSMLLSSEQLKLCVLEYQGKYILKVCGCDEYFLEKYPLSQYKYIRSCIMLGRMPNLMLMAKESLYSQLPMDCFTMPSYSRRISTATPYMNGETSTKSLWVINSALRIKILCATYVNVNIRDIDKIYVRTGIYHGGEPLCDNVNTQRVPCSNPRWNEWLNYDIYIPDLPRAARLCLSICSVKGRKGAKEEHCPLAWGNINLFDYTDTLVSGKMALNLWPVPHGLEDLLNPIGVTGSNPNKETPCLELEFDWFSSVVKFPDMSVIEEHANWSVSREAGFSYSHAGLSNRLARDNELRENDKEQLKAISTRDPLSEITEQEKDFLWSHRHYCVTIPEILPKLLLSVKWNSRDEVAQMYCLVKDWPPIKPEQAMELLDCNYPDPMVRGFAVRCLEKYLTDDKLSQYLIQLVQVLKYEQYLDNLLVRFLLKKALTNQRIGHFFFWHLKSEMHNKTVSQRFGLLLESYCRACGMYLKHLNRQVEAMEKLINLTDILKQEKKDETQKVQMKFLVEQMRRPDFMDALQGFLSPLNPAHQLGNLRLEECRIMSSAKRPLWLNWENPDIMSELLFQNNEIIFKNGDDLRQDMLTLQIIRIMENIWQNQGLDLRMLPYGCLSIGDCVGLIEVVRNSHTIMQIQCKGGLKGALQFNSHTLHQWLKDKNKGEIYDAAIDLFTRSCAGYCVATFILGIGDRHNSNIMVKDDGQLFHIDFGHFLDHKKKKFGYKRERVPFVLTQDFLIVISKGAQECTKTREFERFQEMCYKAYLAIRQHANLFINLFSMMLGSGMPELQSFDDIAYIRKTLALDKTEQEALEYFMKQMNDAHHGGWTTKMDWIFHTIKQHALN

As usually defined, the IC50 is the point on the concentration scale where inhibition reaches its midpoint. In the case of `Cc1cc(C(C)Nc2ccccc2)c2nc(N3CCOCC3)cc(=O)n2c1` (stereo not given), the IC50 in [1] is greater than 10000 nM; in data set [2], 851 nM; in [3] it was greater than 10000 nM; in data set [4], 10 nM; in data set [5], greater than 1000 nM; in data set [6] it was 252 nM. For the same compound, the 50% inhibitory concentration (IC50) in [7] is greater than 1000 nM.

For the compound `Cc1cc(C(C)Nc2ccccc2)c2oc(N3CCOCC3)cc(=O)c2c1` (stereo not given), the IC50 in data set [8] came out at 3 nM; in [9], 28 nM; in data set [4] it was 3 nM; in data set [10] it was 3 nM.

What is called Papp is the rate of passage across a membrane or cell layer, normalised by area and donor concentration. As to `O=c1cc(N2CCOCC2)nc(Cc2nc3ccc(F)cc3[nH]2)[nH]1`, the half-inhibitory concentration (IC50) was 41 nM in data set [8]; greater than 10000 nM in [1]; 30 nM in [9]; 219 nM in data set [2]; greater than 10000 nM in [3]; greater than 10000 nM in [11]. Further, the concentration for half-maximal inhibition (IC50) was 41 nM in data set [4], 100 nM in data set [10] and greater than 40000 nM on Cytochrome P450 3A4. Also, the solubility thermodynamic at 16 h in data set [12] was 76 µM (≈ 25 µg/mL). Besides, in [13], the Papp amounted to 0.2 ×10⁻⁶ cm/s. The metabolised in data set [14] came to 69%; in [15] it was 0%.

In the case of `O=c1cc(N2CCOCC2)nc(Cc2nc3c(-c4ccccc4)cccc3[nH]2)[nH]1`, the IC50 in [8] is 65 nM; in [1] it was 5500 nM; in data set [9], 10 nM; in data set [2], 180 nM; in data set [3], greater than 10000 nM; in [11], greater than 10000 nM. For the same compound, the concentration for half-maximal inhibition (IC50) at Cytochrome P450 3A4 was greater than 40000 nM. Moreover, the solubility thermodynamic at 16 h in data set [12] amounted to 3 µM (≈ 1.16 µg/mL). In addition, the Papp in data set [13] was found to be 0.1 ×10⁻⁶ cm/s. Further, the metabolised in [14] was 78%; in data set [15], 51%.

Take `Cn1c(Cc2nc(N3CCOCC3)cc(=O)[nH]2)nc2cccc(-c3ccccc3)c21`: the IC50 is 17 nM in [8]; 4580 nM in data set [1]; 60 nM in data set [9]; 181 nM in data set [2]; greater than 10000 nM in [3]; greater than 10000 nM in [11]. Besides, on Cytochrome P450 3A4, the IC50 was greater than 40000 nM. Further, the solubility thermodynamic at 16 h in data set [12] was determined as 2 µM (≈ 0.803 µg/mL). For the same compound, the Papp in data set [13] stood at 3.9 ×10⁻⁶ cm/s. Moreover, the figures for the metabolised in data set [14] and in data set [15] were 57% and 55%, respectively.

For `O=c1cc(N2CCOCC2)nc(Cc2nc3cc(F)ccc3o2)[nH]1`, the 50% inhibitory concentration (IC50) in data set [8] was 26 nM; in [1] it was greater than 10000 nM; in [9], 46 nM; in data set [2], 854 nM; in data set [3], greater than 10000 nM; in data set [11] it was greater than 10000 nM. The IC50 at Cytochrome P450 3A4 is greater than 40000 nM. Besides, in [12], the solubility thermodynamic at 16 h was 3 µM (≈ 0.991 µg/mL). The Papp in data set [13] came out at 16 ×10⁻⁶ cm/s. Also, the metabolised in data set [14] worked out at 47%; in data set [15], 23%.

Turning to `O=c1cc(N2CCOCC2)nc(Cc2nc3cccc(-c4ccccc4)c3o2)[nH]1`, the IC50 is 177 nM in data set [8]; greater than 10000 nM in data set [1]; 90 nM in [9]; 1180 nM in [2]; greater than 10000 nM in data set [3]; greater than 10000 nM in [11]. On Cytochrome P450 3A4, the IC50 was greater than 40000 nM. In data set [12], the solubility thermodynamic at 16 h amounted to 3 µM (≈ 1.17 µg/mL). Also, the Papp in data set [13] amounted to 32.3 ×10⁻⁶ cm/s. In addition, the results for the metabolised in [14] and in data set [15] were 57% and 61%, respectively.

For `O=c1cc(N2CCOCC2)nc(Cc2nc3c(-c4cccs4)cccc3o2)[nH]1`, the IC50 was 22 nM in [8]; 4360 nM in data set [1]; 46 nM in data set [9]; 398 nM in [2]; 5740 nM in data set [3]; greater than 10000 nM in data set [11]. For the same compound, the concentration for half-maximal inhibition (IC50) on Cytochrome P450 3A4 worked out at 19000 nM. Besides, the solubility thermodynamic at 16 h in data set [12] came out at 3 µM (≈ 1.18 µg/mL). In addition, the Papp in data set [13] turned out to be 25.5 ×10⁻⁶ cm/s. Also, the metabolised in [14] stood at 60%; in data set [15] it was 79%.

With `O=c1cc(N2CCOCC2)nc(Cc2nc3c(-c4ccccc4)c(F)ccc3o2)[nH]1`, the IC50 in data set [8] is 6 nM; in data set [1], greater than 10000 nM; in [9], 8 nM; in data set [2], 151 nM; in [3] it was greater than 10000 nM; in [11] it was greater than 10000 nM. Moreover, at Cytochrome P450 3A4, the concentration for half-maximal inhibition (IC50) was greater than 40000 nM. Besides, the solubility thermodynamic at 16 h in [12] was 15 µM (≈ 6.1 µg/mL). For the same compound, in [13], the Papp stood at 37.1 ×10⁻⁶ cm/s. Besides, the results for the metabolised in data set [14] and in data set [15] were 18% and 17%, respectively.

For the origin of these results see ChEMBL document CHEMBL2062364, “Discovery and optimization of new benzimidazole- and benzoxazole-pyrimidone selective PI3Kβ inhibitors for the treatment of phosphatase and TENsin homologue (PTEN)-deficient cancers” (J Med Chem, 2012).
